“And” between values parts separate entries of the source, which are not always exact repeats. Equal values may be shown once.
Experiments:
[1] = molecular target: T1, GPR139 (arrestin-3 recruitment) (Homo sapiens, UniProt Q6DWJ6); test: Arrestin-3 recruitment assay (enhanced bystander BRET), HEK293A; assay type: cell-based; conditions: for Emax: HEK293-A, normalized to JNJ-63533054 (JNJ(S)); for EC50: Supplementary Table 6, read-out: pEC50 Arrestin-3 (converted); for Arrestin-3 recruitment: individual replicates
T1 construct: expressed in transfected cells; host or cells: HEK293A (transient, Lipofectamine 2000)
T1 sequence (Q6DWJ6 1-353): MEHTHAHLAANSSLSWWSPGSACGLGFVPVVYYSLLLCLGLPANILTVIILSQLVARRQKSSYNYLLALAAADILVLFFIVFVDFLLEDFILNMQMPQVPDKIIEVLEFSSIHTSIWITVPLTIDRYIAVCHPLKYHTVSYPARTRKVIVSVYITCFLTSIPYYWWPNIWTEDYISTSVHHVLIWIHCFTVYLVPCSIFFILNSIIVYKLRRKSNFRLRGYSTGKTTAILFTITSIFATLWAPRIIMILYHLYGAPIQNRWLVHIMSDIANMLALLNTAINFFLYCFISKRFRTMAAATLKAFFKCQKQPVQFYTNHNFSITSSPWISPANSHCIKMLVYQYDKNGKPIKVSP
Procedure: Primary screening and pharmacological characterization of compounds were performed using a CHO-K1 cell line that stably expresses human GPR139 (GPR139-CHOk1). The GPR139-CHOk1 cell line was kindly provided by H. Lundbeck A/S, Denmark[24]. GPR139-CHOk1 cells were grown in Ham’s F-12 Kaighn’s Modification Medium (ThermoFisher #21127030) supplemented with 10% dialyzed fetal bovine serum (US origin, ThermoFisher #26400044), 100 units/mL Penicillin-Streptomycin (ThermoFisher #15140122), and 1 mg/mL Geneticin (ThermoFisher #11811031). […] M1R-CHOk1 cells were purchased from The Missouri S&T cDNA Resource Center (#CEM100TN00). M1R-CHOk1 cells were grown in Ham’s F12 Medium (ThermoFisher #21765029) supplemented with 10% fetal bovine serum (Brazilian origin, ThermoFisher #10270106), 100 units/mL Penicillin-Streptomycin, and 0.25 mg/mL Geneticin. HEK293A cells transiently transfected with GPR139 were used for additional pharmacological assessment of signaling pathways activated by GPR139. HEK239A cells were generously provided by Dr. Asuka Inoue, Tohoku University, Japan. HEK293A cells were grown in Dulbecco’s Modified Eagle Medium (ThermoFisher #31966047) supplemented with 10% dialyzed fetal bovine serum and 100 units/mL Penicillin-Streptomycin. Cell lines were maintained at 37 °C in humidified incubator equilibrated with 5% CO2.
The enhanced bystander BRET arrestin recruitment assay developed by the work of Donthamsetti et al.[58] was used to measure the arrestin-3 recruitment by GPR139. HEK293A cells were reverse transfected 20–24 h prior to the assay. 50,000 cells were plated in each well of white opaque tissue culture treated 96-well plates (PerkinElmer #6005680) previously coated with poly-D-lysine. The transfection solutions were prepared as described, and 10 µL transfection solution was mixed with 100 µL cells in each well. The cells in each well were transfected with 6 ng GPR139, 0.6 ng RLuc8-Arrestin3-Sp1, 6 ng GRK5, and 62.5 ng MEMlinker[doubly palmitoylated fragment of GAP43]-Citrine-SH3 using 200 nL Lipofectamine 2000 Transfection Reagent. Each transfection was normalized to 80 ng total DNA with pcDNA3.1. On the day of the experiment, the cells were washed with HEPES buffer and incubated for 2 h in HEPES buffer prior to measurements. Test compounds were diluted in HEPES buffer from DMSO stocks (final DMSO concentration of maximally 0.3%). Renilla luciferase 8 (RLuc8) substrate Coelenterazine h (Cayman Chemical #16894) was diluted in HEPES buffer to 5 µM (final). Coelenterazine h was added, and the cells were incubated for 5 min followed by stimulation with test compounds. Simultaneous dual emission was measured at 535 nm and 475 nm on LUMIstar Omega Microplate Reader (BMG Labtech) at 37 °C over 30 min. The BRET ratio of 535 nm/475 nm (Citrine/RLuc8), reflecting the translocation of arrestin from the cytosol to the membrane, was used to determine the arrestin recruitment. The BRET response-time course area under the curve of the basal response obtained with buffer condition was subtracted from the absolute response at a given test compound concentration, and the responses were normalized to the one obtained with 10 µM JNJ-63533054.
Pharmacological data and statistical analyses were performed in GraphPad Prism v9–10 (Graphpad Software Inc., San Diego, CA), which are also specifically described in the figure and table legends. The functional assay responses were normalized to buffer (0%) and Lundbeck Cmp 1a or JNJ-63533054 (100%), for Ca^2+ and IP1 experiments in the GPR139-CHOk1 stable cell line or Ca^2+, G protein activation, and arrestin-3 recruitment experiments in the HEK293A cells transiently transfected with GPR139, respectively. Data are from at least three independent experiments, unless stated otherwise. Concentration-response curves were fitted applying non-linear regression using the log (agonist) versus response model with variable slope. ANOVA was applied for comparing results and determining statistical significance. […]

GPR139 = molecular target: T2, GPR139 (Homo sapiens, UniProt Q6DWJ6); test: Ca2+ mobilization assay, antagonist mode (EC80 800 nM Lundbeck Cmp 1a after 20 min preincubation), GPR139-CHOk1; assay type: cell-based
T2 sequence (Q6DWJ6 1-353): T1 sequence (Q6DWJ6 1-353)
Summary of the method: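 Antagonist mode: 800 nM (EC80) reference agonist Lundbeck Cmp 1a added following 20 min pre-incubation with 10 µM compound. GPR139-CHOk1 cells, Fluo-4 dye, probenecid-containing HEPES buffer pH 7.4; intracellular Ca2+ measured at 37 °C (ex 485, em 525 nm).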

[2] = individual replicates (Supplementary Figure 1)
[3] = individual replicates (Supplementary Figure 4)

For `Cc1cscc1-c1nc(CC(=O)N[C@H](C)c2ccccc2)no1` [1.1(R)], the Emax [1] was 81 ± 5%, the EC50 [1] was 2510 nM and the Arrestin-3 recruitment ([1]; log [compound] M -4.5) was 72 % of JNJ-63533054 and 73 % of JNJ-63533054 and 89 % of JNJ-63533054. For the same compound, the Arrestin-3 recruitment ([1]; log [compound] M -5.0) was 69 % of JNJ-63533054 and 65 % of JNJ-63533054 (2×), the Arrestin-3 recruitment ([1]; log [compound] M -5.5) was 54 % of JNJ-63533054 and 40 % of JNJ-63533054 and 41 % of JNJ-63533054 and the Arrestin-3 recruitment ([1]; log [compound] M -6.0) was 36 % of JNJ-63533054 and 10 % of JNJ-63533054 and 17 % of JNJ-63533054. The Arrestin-3 recruitment ([1]; log [compound] M -6.5) was 17 % of JNJ-63533054 and 3.28 % of JNJ-63533054 and 1.44 % of JNJ-63533054, the Arrestin-3 recruitment ([1]; log [compound] M -7.0) was 12 % of JNJ-63533054 and 3.28 % of JNJ-63533054 and 2 % of JNJ-63533054 and the Arrestin-3 recruitment ([1]; log [compound] M -7.5) was 1.13 % of JNJ-63533054 and 0.124 % of JNJ-63533054 and 0.145 % of JNJ-63533054.

`Cc1noc(C(C)NC(=O)Nc2cccc(-c3ccccc3)c2)n1` (centres unmarked) [Compound 3, CC(NC(=O)NC=1C=CC=C(C1)C=2C=CC=CC2)C3=NC(C)=NO3] was tested, and the “Ca2+ signal (% of Cmp 1a)” value (GPR139; [2]) was 29.8327 % of Cmp 1a and 24.7661 % of Cmp 1a and 29.9717 % of Cmp 1a.

For `COc1cc(-c2nc(CC(=O)NC(C)c3ccccc3)no2)ccn1` (centres unmarked) [Compound 1.7, COC1=NC=CC(C2=NC(CC(NC(C3=CC=CC=C3)C)=O)=NO2)=C1], the “Ca2+ signal (% of Cmp 1a)” value (GPR139; [3]) was -1.33 % of Cmp 1a and 38 % of Cmp 1a and -9 % of Cmp 1a.

`CC(NC(=O)Cn1cncc(-c2ccccc2)c1=O)c1ccccc1` (centres unmarked) [Compound 5, C[C@@H](NC(=O)CN1C=NC=C(C=2C=CC=CC2)C1=O)C=3C=CC=CC3] was tested, and the “Ca2+ signal (% of Cmp 1a)” value (GPR139; [2]) was 38.6236 % of Cmp 1a and 37.7276 % of Cmp 1a and 30.4652 % of Cmp 1a.

`Cc1cscc1-c1nc(CC(=O)N[C@@H](C)c2ccccc2)no1` [1.1(S)] was tested, and the Emax [1] was 96 ± 1%, the EC50 [1] was 79.4 nM and the Arrestin-3 recruitment ([1]; log [compound] M -4.5) was 96 % of JNJ-63533054 and 88 % of JNJ-63533054 and 101 % of JNJ-63533054. The Arrestin-3 recruitment ([1]; log [compound] M -5.0) was 90 % of JNJ-63533054 and 91 % of JNJ-63533054 (2×), the Arrestin-3 recruitment ([1]; log [compound] M -5.5) was 89 % of JNJ-63533054 and 102 % of JNJ-63533054 and 91 % of JNJ-63533054 and the Arrestin-3 recruitment ([1]; log [compound] M -6.0) was 109 % of JNJ-63533054 and 107 % of JNJ-63533054 and 84 % of JNJ-63533054. For the same compound, the Arrestin-3 recruitment ([1]; log [compound] M -6.5) was 82 % of JNJ-63533054 and 87 % of JNJ-63533054 and 66 % of JNJ-63533054, the Arrestin-3 recruitment ([1]; log [compound] M -7.0) was 57 % of JNJ-63533054 and 71 % of JNJ-63533054 and 50 % of JNJ-63533054 and the Arrestin-3 recruitment ([1]; log [compound] M -7.5) was 23 % of JNJ-63533054 and 32 % of JNJ-63533054 and 4.63 % of JNJ-63533054.

`Cc1cc(-c2nc(CC(=O)NC(C)c3ccccc3)no2)sc1C` (centres unmarked) [Compound 1, CC(NC(=O)CC1=NOC(=N1)C2=CC(C)=C(C)S2)C=3C=CC=CC3] was tested, and the “Ca2+ signal (% of Cmp 1a)” value (GPR139; [2]) was 6.536 % of Cmp 1a and 8.894 % of Cmp 1a and 14.743 % of Cmp 1a.

In the case of `Cc1cscc1-c1nc(CC(=O)NC(C)c2ccccc2)no1` (centres unmarked) [Compound 1.1, CC(C1=CC=CC=C1)NC(CC2=NOC(C3=CSC=C3C)=N2)=O], the “Ca2+ signal (% of Cmp 1a)” value (GPR139; [3]) is reported as -3.33 % of Cmp 1a and 11 % of Cmp 1a and -12 % of Cmp 1a.

Source: paper PMC12775434, “Ultra-large virtual screening unveils potent agonists of the neuromodulatory orphan receptor GPR139” (Nature Communications, 2025)
